{"source": "patent US20250388571A1", "about": "“AMP-ACTIVATED PROTEIN KINASE MODULATOR COMPOUNDS AND USES THEREOF” (Biolexis Therapeutics, Inc., priority 2024, published 2025)", "key": {"[1]": {"assay": "Plasma and tissue concentration in high fat diet mice, day 36", "format": "in vivo, mice (Mus musculus—C57BL-6)", "conditions": "for concentration at 1 h / concentration at 3 h / concentration at 4 h: male, C57BL-6, mouse, oral", "description": "Doses were 30 and 50 mg/kg and administered orally (p.o.) once a day (QD) for 36 days. Dose volume was 10 mL/kg, which was administered to male, 18-22-week-old mice (Mus musculus—C57BL-6) with body weight between 18-19.4 g each. Mice were grouped into 3 groups of 10. The diet for induced obesity mice were selected as a test system\nPlasma lipid profile: On day 34 total cholesterol levels, triglyceride, HDL, and LDL levels were detected. Plasma insulin (fasting) and plasma NEFA (fasting) was tested on day 36. Cumulative food consumption was measured daily starting from day 1 onwards up to end of the study period. Liver, heart, jejunum, and brain tissue were collected for additional testing."}, "[2]": {"tested_on": "high fat diet mice", "conditions": "for % Body (percentage change in body weight): up to day 36"}}, "note": "Where two headings read alike, the source gives them in different places."}
{"smiles": "O=c1[nH]c(-c2c[nH]c3cc(F)c(-c4ccc(C5(O)CCC5)cc4)c(F)c23)no1", "note": "[Compound I-11, 3-(4,6-difluoro-5-(4-(1-hydroxycyclobutyl)phenyl)-1H-indol-3-yl)-1,2,4-oxadiazol-5(4H)-one]", "values": [{"measurement": "Brain (ng/mL)", "setting": "[1]; 30 mg/kg, 1 hr", "result": "BLQ"}, {"measurement": "Brain (ng/mL)", "setting": "[1]; 30 mg/kg, 3 hr", "result": "BLQ"}, {"measurement": "Skeletal muscle (ng/mL)", "setting": "[1]; 30 mg/kg, 3 hr", "result": "BLQ"}, {"measurement": "Brain (ng/mL)", "setting": "[1]; 50 mg/kg, 1 hr", "result": "BLQ"}, {"measurement": "Skeletal muscle (ng/mL)", "setting": "[1]; 50 mg/kg, 1 hr", "result": "BLQ"}, {"measurement": "Brain (ng/mL)", "setting": "[1]; 50 mg/kg, 3 hr", "result": "BLQ"}, {"measurement": "Skeletal muscle (ng/mL)", "setting": "[1]; 50 mg/kg, 3 hr", "result": "BLQ"}, {"measurement": "Brain (ng/mL)", "setting": "[1]; 50 mg/kg, 4 hr", "result": "BLQ"}, {"measurement": "Skeletal muscle (ng/mL)", "setting": "[1]; 50 mg/kg, 4 hr", "result": "BLQ"}, {"measurement": "concentration at 1 h", "setting": "[1]; adipose tissue (abdominal fat), 30 mg/kg, 1 hr, read-out: Adipose tissue (abdominal fat)", "result": 57, "unit": "ng/mL"}, {"measurement": "concentration at 3 h", "setting": "[1]; adipose tissue (abdominal fat), 30 mg/kg, 3 hr, read-out: Adipose tissue (abdominal fat)", "result": 23, "unit": "ng/mL"}, {"measurement": "concentration at 4 h", "setting": "[1]; adipose tissue (abdominal fat), 30 mg/kg, 4 hr, read-out: Adipose tissue (abdominal fat)", "result": 38, "unit": "ng/mL"}, {"measurement": "concentration at 1 h", "setting": "[1]; adipose tissue (abdominal fat), 50 mg/kg, 1 hr, read-out: Adipose tissue (abdominal fat)", "result": 2000, "unit": "ng/mL"}, {"measurement": "concentration at 3 h", "setting": "[1]; adipose tissue (abdominal fat), 50 mg/kg, 3 hr, read-out: Adipose tissue (abdominal fat)", "result": 1590, "unit": "ng/mL"}, {"measurement": "concentration at 4 h", "setting": "[1]; adipose tissue (abdominal fat), 50 mg/kg, 4 hr, read-out: Adipose tissue (abdominal fat)", "result": 1760, "unit": "ng/mL"}, {"measurement": "concentration at 4 h", "setting": "[1]; brain, 30 mg/kg, 4 hr, read-out: Brain", "result": 6, "unit": "ng/mL"}, {"measurement": "concentration at 1 h", "setting": "[1]; heart, 30 mg/kg, 1 hr, read-out: Heart", "result": 103, "unit": "ng/mL"}, {"measurement": "concentration at 3 h", "setting": "[1]; heart, 30 mg/kg, 3 hr, read-out: Heart", "result": 32, "unit": "ng/mL"}, {"measurement": "concentration at 4 h", "setting": "[1]; heart, 30 mg/kg, 4 hr, read-out: Heart", "result": 31, "unit": "ng/mL"}, {"measurement": "concentration at 1 h", "setting": "[1]; heart, 50 mg/kg, 1 hr, read-out: Heart", "result": 52, "unit": "ng/mL"}, {"measurement": "concentration at 3 h", "setting": "[1]; heart, 50 mg/kg, 3 hr, read-out: Heart", "result": 36, "unit": "ng/mL"}, {"measurement": "concentration at 4 h", "setting": "[1]; heart, 50 mg/kg, 4 hr, read-out: Heart", "result": 102, "unit": "ng/mL"}, {"measurement": "concentration at 1 h", "setting": "[1]; jejunum, 30 mg/kg, 1 hr, read-out: Jejunum", "result": 124000, "unit": "ng/mL"}, {"measurement": "concentration at 3 h", "setting": "[1]; jejunum, 30 mg/kg, 3 hr, read-out: Jejunum", "result": 35, "unit": "ng/mL"}, {"measurement": "concentration at 4 h", "setting": "[1]; jejunum, 30 mg/kg, 4 hr, read-out: Jejunum", "result": 27, "unit": "ng/mL"}, {"measurement": "concentration at 1 h", "setting": "[1]; jejunum, 50 mg/kg, 1 hr, read-out: Jejunum", "result": 4390, "unit": "ng/mL"}, {"measurement": "concentration at 3 h", "setting": "[1]; jejunum, 50 mg/kg, 3 hr, read-out: Jejunum", "result": 165, "unit": "ng/mL"}, {"measurement": "concentration at 4 h", "setting": "[1]; jejunum, 50 mg/kg, 4 hr, read-out: Jejunum", "result": 55, "unit": "ng/mL"}, {"measurement": "concentration at 1 h", "setting": "[1]; liver, 30 mg/kg, 1 hr, read-out: Liver", "result": 118, "unit": "ng/mL"}, {"measurement": "concentration at 3 h", "setting": "[1]; liver, 30 mg/kg, 3 hr, read-out: Liver", "result": 74, "unit": "ng/mL"}, {"measurement": "concentration at 4 h", "setting": "[1]; liver, 30 mg/kg, 4 hr, read-out: Liver", "result": 106, "unit": "ng/mL"}, {"measurement": "concentration at 1 h", "setting": "[1]; liver, 50 mg/kg, 1 hr, read-out: Liver", "result": 80, "unit": "ng/mL"}, {"measurement": "concentration at 3 h", "setting": "[1]; liver, 50 mg/kg, 3 hr, read-out: Liver", "result": 64, "unit": "ng/mL"}, {"measurement": "concentration at 4 h", "setting": "[1]; liver, 50 mg/kg, 4 hr, read-out: Liver", "result": 71, "unit": "ng/mL"}, {"measurement": "concentration at 1 h", "setting": "[1]; plasma, 30 mg/kg, 1 hr, read-out: Plasma", "result": 627, "unit": "ng/mL"}, {"measurement": "concentration at 3 h", "setting": "[1]; plasma, 30 mg/kg, 3 hr, read-out: Plasma", "result": 147, "unit": "ng/mL"}, {"measurement": "concentration at 4 h", "setting": "[1]; plasma, 30 mg/kg, 4 hr, read-out: Plasma", "result": 121, "unit": "ng/mL"}, {"measurement": "concentration at 1 h", "setting": "[1]; plasma, 50 mg/kg, 1 hr, read-out: Plasma", "result": 501, "unit": "ng/mL"}, {"measurement": "concentration at 3 h", "setting": "[1]; plasma, 50 mg/kg, 3 hr, read-out: Plasma", "result": 199, "unit": "ng/mL"}, {"measurement": "concentration at 4 h", "setting": "[1]; plasma, 50 mg/kg, 4 hr, read-out: Plasma", "result": 112, "unit": "ng/mL"}, {"measurement": "concentration at 1 h", "setting": "[1]; skeletal muscle, 30 mg/kg, 1 hr, read-out: Skeletal muscle", "result": 287, "unit": "ng/mL"}, {"measurement": "concentration at 4 h", "setting": "[1]; skeletal muscle, 30 mg/kg, 4 hr, read-out: Skeletal muscle", "result": 56, "unit": "ng/mL"}, {"measurement": "% fat mass", "setting": "[2]; 30 mg/kg p.o. QD, Day 14", "result": "53.75 ± 0.88", "unit": "%"}, {"measurement": "area (cm^2; DEXA scan)", "setting": "[2]; 30 mg/kg p.o. QD, Day 14", "result": "13.26 ± 0.24", "unit": "cm^2"}, {"measurement": "bone mineral content (BMC)", "setting": "[2]; 30 mg/kg p.o. QD, Day 14", "result": "1.04 ± 0.02"}, {"measurement": "bone mineral density (BMD)", "setting": "[2]; 30 mg/kg p.o. QD, Day 14", "result": "0.08 ± 0.00"}, {"measurement": "fat mass (gm)", "setting": "[2]; 30 mg/kg p.o. QD, Day 14", "result": "27.97 ± 0.67", "unit": "gm"}, {"measurement": "lean+bone mineral content (BMC-gm)", "setting": "[2]; 30 mg/kg p.o. QD, Day 14", "result": "24.11 ± 0.71", "unit": "gm"}, {"measurement": "total mass (gm)", "setting": "[2]; 30 mg/kg p.o. QD, Day 14", "result": "52.05 ± 1.04", "unit": "gm"}, {"measurement": "% fat mass", "setting": "[2]; 30 mg/kg p.o. QD, Day −3", "result": "46.39 ± 0.83", "unit": "%"}, {"measurement": "area (cm^2; DEXA scan)", "setting": "[2]; 30 mg/kg p.o. QD, Day −3", "result": "12.61 ± 0.23", "unit": "cm^2"}, {"measurement": "bone mineral content (BMC)", "setting": "[2]; 30 mg/kg p.o. QD, Day −3", "result": "1.01 ± 0.01"}, {"measurement": "bone mineral density (BMD)", "setting": "[2]; 30 mg/kg p.o. QD, Day −3", "result": "0.08 ± 0.00"}, {"measurement": "fat mass (gm)", "setting": "[2]; 30 mg/kg p.o. QD, Day −3", "result": "23.20 ± 0.60", "unit": "gm"}, {"measurement": "lean+bone mineral content (BMC-gm)", "setting": "[2]; 30 mg/kg p.o. QD, Day −3", "result": "26.78 ± 0.50", "unit": "gm"}, {"measurement": "total mass (gm)", "setting": "[2]; 30 mg/kg p.o. QD, Day −3", "result": "49.96 ± 0.75", "unit": "gm"}, {"measurement": "% Body (percentage change in body weight)", "setting": "[2]; 30 mg/kg p.o. QD", "result": "1.40 ± 0.21", "unit": "%"}, {"measurement": "% fat mass", "setting": "[2]; 50 mg/kg p.o. QD, Day 14", "result": "50.05 ± 1.02", "unit": "%"}, {"measurement": "area (cm^2; DEXA scan)", "setting": "[2]; 50 mg/kg p.o. QD, Day 14", "result": "12.93 ± 0.23", "unit": "cm^2"}, {"measurement": "bone mineral content (BMC)", "setting": "[2]; 50 mg/kg p.o. QD, Day 14", "result": "1.04 ± 0.02"}, {"measurement": "bone mineral density (BMD)", "setting": "[2]; 50 mg/kg p.o. QD, Day 14", "result": "0.08 ± 0.00"}, {"measurement": "fat mass (gm)", "setting": "[2]; 50 mg/kg p.o. QD, Day 14", "result": "25.95 ± 0.84", "unit": "gm"}, {"measurement": "lean+bone mineral content (BMC-gm)", "setting": "[2]; 50 mg/kg p.o. QD, Day 14", "result": "25.83 ± 0.49", "unit": "gm"}, {"measurement": "total mass (gm)", "setting": "[2]; 50 mg/kg p.o. QD, Day 14", "result": "51.78 ± 0.85", "unit": "gm"}, {"measurement": "% fat mass", "setting": "[2]; 50 mg/kg p.o. QD, Day −3", "result": "46.37 ± 2.15", "unit": "%"}, {"measurement": "area (cm^2; DEXA scan)", "setting": "[2]; 50 mg/kg p.o. QD, Day −3", "result": "12.56 ± 0.30", "unit": "cm^2"}, {"measurement": "bone mineral content (BMC)", "setting": "[2]; 50 mg/kg p.o. QD, Day −3", "result": "1.01 ± 0.02"}, {"measurement": "bone mineral density (BMD)", "setting": "[2]; 50 mg/kg p.o. QD, Day −3", "result": "0.08 ± 0.00"}, {"measurement": "fat mass (gm)", "setting": "[2]; 50 mg/kg p.o. QD, Day −3", "result": "23.44 ± 1.29", "unit": "gm"}, {"measurement": "lean+bone mineral content (BMC-gm)", "setting": "[2]; 50 mg/kg p.o. QD, Day −3", "result": "26.97 ± 1.03", "unit": "gm"}, {"measurement": "total mass (gm)", "setting": "[2]; 50 mg/kg p.o. QD, Day −3", "result": "50.40 ± 0.80", "unit": "gm"}, {"measurement": "% Body (percentage change in body weight)", "setting": "[2]; 50 mg/kg p.o. QD", "result": "−0.34 ± 0.73", "unit": "%"}, {"measurement": "clinical signs, morbidity, mortality", "setting": "[2]; 30 and 50 mg/kg p.o. QD for 36 days", "result": "no observations of clinical signs or morbidity, and no mortality"}]}
